According to patent publication US10766917B2, “Nucleotides for the treatment of cancer” (IDENIX PHARMACEUTICALS LLC, priority 2015, dated 2020):
Like-named read-outs stand apart in the source and are kept apart here.

Experiments:
Format in all cases: cell-based
HuH-1 cells = assay: In vitro inhibition of HuH-1, MTT assay; details: read-out: HuH-1: relative IC50
Experimental: HuH-1 cells were purchased from JCRB and tested with the following method:
Cells are suspended at a specific density in a specific culture medium (see table in 2.Cell lines).
Then, 100 μl of cell suspension are plated per well in 96-well plates.
Compounds or negative controls (DMSO) are added to the cells (100 μl of a compound solution in its specific medium with a final concentration of 0.15% DMSO).
Each compound concentration is tested in duplicate (6 concentrations per compound).
Cells are incubated at 37° C. for 72 h without treating again.
SDS is added to control wells (final concentration of 1%) and kept for 15 min at 37° C. SDS 1% represents the positive control of proliferation inhibition.
Cell supernatant is removed and 100 μl of a MTT (3-[4.5-dimethylthiazol-2-yl]-2.5-diphenyltetrazolium bromide) solution in fresh medium are added per well (MTT final concentration of 0.5 mg/ml) and incubated for 4 h at 37° C.
MTT reaction is stopped and homogenized by adding 100 μl/well of SDS 10%, 0.01M HCl and incubated for 2 h at 37° C.
Absorbance is measured at 570 nm.

BxPC-3 = assay: In vitro inhibition, CellTiter-Glo (CTG) assay; details: 72 hr exposure
Experimental: (§1) Cells were grown in RPMI-1640 supplemented with L-Glutamine and 10% FBS of the following cell lines:
(§2) CCRF-CEM; HL-60; KG-1; CFPAC-1; MiaPACA-2; BxPC-3; HepG2; MDA-MB-231; HCT-116; A498; and NCI-H69
(§3) 18, 96 well plates of each cell line were seeded with the optimized number of cells per well in a total volume of 50 μper well. The plates were left overnight. Plate wells were seeded with 100 pt media for media control. The following day, cells were exposed to test compounds as described below. At the same time as drug exposure, a CTG assay was conducted on the 18th plate for the 0 hr count.
(§4) The compounds were added to cells and medium already on the plate to give desired final concentrations. 50 μL media were added to cell control wells, and 50 μL of mix added to vehicle control wells. 10 μM Doxorubicin was added to appropriate wells as control. Cells exposed to test compound were incubated at 37° C. for 72 hr followed by a CTG assay.
(§5) At the end of the 72 hr exposure period, plates were removed for a CellTiter-Glo (CTG) assay from a 37° C., 5% CO2 incubator and placed on the bench at room temperature for 30 mins. 100 μL of CellTiter-Glo reagent was added and mixed for 2 mins, followed by a further 10 min incubation at room temperature. Luminescence was recorded using Synergy 4.0.

MiaPACA-2 = assay: In vitro inhibition, CellTiter-Glo (CTG) assay; details: 72 hr exposure
Experimental: as §1, §2, §3, §4, §5

NCI-H69 = assay: In vitro inhibition, CellTiter-Glo (CTG) assay; details: 72 hr exposure
Experimental: as §1, §2, §3, §4, §5

HepG2 = assay: In vitro inhibition, CellTiter-Glo (CTG) assay; details: 72 hr exposure
Experimental: as §1, §2, §3, §4, §5

A498 = assay: In vitro inhibition, CellTiter-Glo (CTG) assay; details: 72 hr exposure
Experimental: as §1, §2, §3, §4, §5

HL-60 = assay: In vitro inhibition, CellTiter-Glo (CTG) assay; details: 72 hr exposure
Experimental: as §1, §2, §3, §4, §5

CFPAC-1 = assay: In vitro inhibition, CellTiter-Glo (CTG) assay; details: 72 hr exposure
Experimental: as §1, §2, §3, §4, §5

CCRF-CEM = assay: In vitro inhibition, CellTiter-Glo (CTG) assay; details: 72 hr exposure
Experimental: as §1, §2, §3, §4, §5

KG-1 = assay: In vitro inhibition, CellTiter-Glo (CTG) assay; details: 72 hr exposure
Experimental: as §1, §2, §3, §4, §5

HCT-116 = assay: In vitro inhibition, CellTiter-Glo (CTG) assay; details: 72 hr exposure
Experimental: as §1, §2, §3, §4, §5

MDA-MB-231 = assay: In vitro inhibition, CellTiter-Glo (CTG) assay
Experimental: as §1, §2, §3, §4, §5

Q: With `Nc1ccn([C@@H]2O[C@H](CO)[C@@H](O)C2(F)F)c(=O)n1` [Gemcitabine, reference compound] as the compound, how does the IC50 (HuH-1 cells; Homo sapiens, HuH-1, 72 h) read?
A: Its IC50 is under 0.3 µM.

Q: How did the IC50 (HuH-1 cells; 72 h) turn out when `CCOC(=O)[C@H](C)CCO[P@@]1(=O)OC[C@H]2O[C@@H](n3ccc(N)nc3=O)C(F)(F)[C@@H]2O1` (single isomer, unassigned; diastereoisomer 1) [Compound 123 Diastereoisomer 1] was run?
A: The IC50 was under 0.3 µM.

Q: With `CCOC(=O)[C@H](C)CCO[P@]1(=O)OC[C@H]2O[C@@H](n3ccc(N)nc3=O)C(F)(F)[C@@H]2O1` (single isomer, unassigned) [Compound 123 Diastereoisomer 2] as the compound, how does the IC50 (HuH-1 cells; Homo sapiens, HuH-1, 72 h) read?
A: Its IC50 is under 0.3 µM.

Q: With `CC(C)OC(=O)[C@@H](C)CCO[P@]1(=O)OC[C@H]2O[C@@H](n3ccc(N)nc3=O)C(F)(F)[C@@H]2O1` (single isomer, unassigned) [Compound 121 Diastereoisomer 1] as the compound, how does the IC50 (HuH-1 cells; Homo sapiens, HuH-1, 72 h) read?
A: Its IC50 is under 0.3 µM.

Q: How did the IC50 (BxPC-3; Homo sapiens, BXPC-3, 72 h) turn out when `Nc1ccn([C@@H]2O[C@H](COP(=O)(O)NCc3ccccc3)[C@@H](O)C2(F)F)c(=O)n1` [Compound 117] was run?
A: The IC50 was under 1 µM.

Q: What about the IC50 (MiaPACA-2; Homo sapiens, MIA PaCa-2, 72 h) of the same compound?
A: Its IC50 is under 1 µM.

Q: And the IC50 (NCI-H69; Homo sapiens, NCI-H69, 72 h)?
A: The IC50 was under 1 µM.

Q: And the IC50 (HepG2; Homo sapiens, HepG2, 72 h)?
A: Its IC50 is under 1 µM.

Q: What about the IC50 (A498; Homo sapiens, A498, 72 h) of the same compound?
A: The IC50 was under 1 µM.

Q: What about the IC50 (HL-60; Homo sapiens, HL-60, 72 h) of the same compound?
A: Its IC50 is under 1 µM.

Q: And the IC50 (CFPAC-1; Homo sapiens, CFPAC-1, 72 h)?
A: Its IC50 is under 1 µM.

Q: And the IC50 (CCRF-CEM; Homo sapiens, CCRF-CEM, 72 h)?
A: The IC50 was under 1 µM.

Q: What about the IC50 (KG-1; Homo sapiens, KG-1, 72 h) of the same compound?
A: The IC50 was under 1 µM.

Q: What about the IC50 (HCT-116; Homo sapiens, HCT-116, 72 h) of the same compound?
A: The IC50 was under 1 µM.

Q: What about the IC50 (MDA-MB-231; Homo sapiens, MDA-MB-231, 72 hr exposure) of the same compound?
A: The IC50 was 1 to 10 µM.

Q: `CCOC(=O)[C@@H](C)CCO[P@]1(=O)OC[C@H]2O[C@@H](n3ccc(N)nc3=O)C(F)(F)[C@@H]2O1` (single isomer, unassigned) [Compound 122 Diastereoisomer 2] was tested. Which IC50 (HuH-1 cells; Homo sapiens, HuH-1, 72 h) did it give?
A: The IC50 was under 0.3 µM.

Q: What does the source list for `CC(C)OP1(=O)OC[C@H]2O[C@@H](n3ccc(N)nc3=O)C(F)(F)[C@@H]2O1` (single isomer, unassigned) [Compound 102 (diastereomer 1)]?
A: IC50 (HuH-1 cells; Homo sapiens, HuH-1, 72 h): ≥ 0.3 µM; IC50 (BxPC-3): 10 to 100 µM; IC50 (MiaPACA-2; Homo sapiens, MIA PaCa-2, 72 h): 1 to 10 µM; IC50 (NCI-H69): 10 to 100 µM; IC50 (HepG2; Homo sapiens, HepG2, 72 h): 1 to 10 µM; IC50 (A498): 10 to 100 µM; IC50 (CFPAC-1; Homo sapiens, CFPAC-1, 72 h): 1 to 10 µM; IC50 (HCT-116): 10 to 100 µM; IC50 (MDA-MB-231; 72 hr exposure): 10 to 100 µM

Q: Which IC50 (HuH-1 cells; Homo sapiens, HuH-1, 72 h) does the source give for `CC(C)OC(=O)[C@H](C)CCO[P@]1(=O)OC[C@H]2O[C@@H](n3ccc(N)nc3=O)C(F)(F)[C@@H]2O1` (single isomer, unassigned) [Compound 120 Diastereoisomer 1] here?
A: The IC50 was under 0.3 µM.

Q: Which IC50 (BxPC-3) does the source give for `Cn1c(COP(=O)(NCc2ccccc2)OC[C@H]2O[C@@H](n3ccc(N)nc3=O)C(F)(F)[C@@H]2O)cnc1[N+](=O)[O-]` (single isomer, unassigned) [112 (diastereomer 2)] here?
A: The IC50 was 10 to 100 µM.

Q: What about the IC50 (MiaPACA-2) of the same compound?
A: Its IC50 is 10 to 100 µM.

Q: What about the IC50 (NCI-H69) of the same compound?
A: The IC50 was 10 to 100 µM.

Q: What about the IC50 (HepG2) of the same compound?
A: Its IC50 is 1 to 10 µM.

Q: And the IC50 (A498)?
A: Its IC50 is 10 to 100 µM.

Q: And the IC50 (HL-60)?
A: The IC50 was under 1 µM.

Q: And the IC50 (CFPAC-1)?
A: The IC50 was 1 to 10 µM.

Q: And the IC50 (CCRF-CEM)?
A: The IC50 was under 1 µM.

Q: What about the IC50 (KG-1) of the same compound?
A: Its IC50 is 1 to 10 µM.

Q: What about the IC50 (HCT-116) of the same compound?
A: The IC50 was 10 to 100 µM.

Q: What about the IC50 (MDA-MB-231; 72 hr exposure) of the same compound?
A: Its IC50 is 10 to 100 µM.
